Active and inactive are the calls of the source.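 The calls were made as follows: active = falling signal with an AC50 no greater than ten times the top valid dose tested for that sample; inconclusive = flat curve with inhibition of 30 to 70 percent, or poor fit; inactive = activity in the rising direction, and the rest.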
Target: LuxS (S-ribosylhomocysteine lyase), bacterial
Assay: LuxS enzyme inhibitors, dose response, biochemical, dry powder, set 2, absorbance (AID 493172)
Conditions: purified Co-LuxS, DTNB homocysteine absorbance 412 nm

AC50, inactive:
C=Cn1c(C(=O)O)ccc1-c1ccc(CC)cc1 > 35 µM

Same assay, conditions: purified Co-LuxS, DTNB homocysteine absorbance 412 nm; at 35 µM (top of the series)

Activity change, negative = inhibition, inactive:
CCc1ccc(S(=O)(=O)Nc2ccc(Br)cn2)cc1, CCc1ccc(C(=O)Nc2ccc(Br)cn2)cc1, Cn1cnc(S(=O)(=O)Nc2ccc(OC(F)(F)F)cc2)c1, Cc1cccc(NS(=O)(=O)c2ccc(Oc3ccccc3)cc2)n1, COc1cc(NC(=O)CN2C(=O)NC(c3ccccc3)(c3ccccc3)C2=O)cc(OC)c1, Cc1cccc(NC(=O)c2ccc(Oc3ccccc3)cc2)n1

— PubChem BioAssay AID493172 (Broad Institute, 2011)
